According to patent US20060019892A1 (Florida Atlantic University, priority 2003, published 2006):
Non-standard residues stand in square brackets, D forms with d. No end group written: not given here. Hyp = O=C(O)[C@@H]1C[C@@H](O)CN1

Tested on: primary cultures of rat neonatal cortex (cultured cortical neurons)
Format: cell-based

## A-O-A-N-S-V-W-S (A[Hyp]ANSVWS) [gla-2]
  effect on Ca^++ flux in the cells: reducing Ca^++ flux
  modulation of Ca^++ flux in cultured neurons from rat cortex: modulate Ca^++ flux
